The values that follow come from patent US12115171B2, “Combination therapies and methods of use thereof for treating cancer” (Massachusetts Institute of Technology, priority 2014, dated 2024).

Where two headings read alike, the source gives them in different places.

For series [1], the system named is cell lines, representative of both solid and hematological tumors. To be noted: cited from earlier work.
The next series has as its system cell mitosis. As to conditions: read-out: EC50 inhibition of cell mitosis; cited from earlier work.
Series [2] deals with Cdc25C-T96 phosphorylation. To be noted: read-out: EC50 Cdc25C-T96 phosphorylation; cited from earlier work.
The conditions of series [3]: cited from earlier work.
Another series concerns cell culture. As to conditions: cited from earlier work.
For series [4] the following is noted: cited from earlier work. The source holds these as a separate data set.
The subject of a further series is xenograft tumor models. To be noted: under proper dose scheduling; cited from earlier work.
For series [5] the following is noted: 24 to 48 mg/m^2 for 5 consecutive days every 4 weeks; cited from earlier work.
For series [6] the following is noted: cited from earlier work. The source holds these as a separate data set.
Series [7] has as its system various human tumor cell lines. To be noted: cited from earlier work.
Another series deals with mouse xenograft models. As to conditions: 10 mg/kg and 20 mg/kg on days 1 and 28; cited from earlier work.
The target in another series is Plk1 (Homo sapiens, UniProt P53350). As to conditions: cited from earlier work.
Another series deals with A549. To be noted: twice-weekly; cited from earlier work.
In the next series the test system is PSA expression. Description: PSA expression by qPCR in C4-2 CRPC cells. In kind it is cell-based, human. To be noted: 10 μM abiraterone, 5 nM BI2536, alone or combined; 24 hours; FBS (FIG. 8). The text has this:
RNA was isolated for analysis by qPCR.
On the technique in general: In qPCR the cycle at which signal appears reflects the starting amount.

The conditions of series [8]: cited from earlier work. The source holds these as a separate data set.
The conditions of series [9]: other studies; cited from earlier work.
The next series has as its system BxPC-3. To be noted: twice-weekly; cited from earlier work.
The conditions of series [10]: cited from earlier work. This is another data set of the same source.
The next series relates to HCT 116 xenografts. To be noted: cited from earlier work.
The next series relates to C4-2. Description: Cell-Titer Glo viability, C4-2. The class given is cell-based, human. As to conditions: for relative levels of proliferation: 5 nM BI2536, 10 μM abiraterone, alone or in combination, FBS, 5 days post-administration (FIG. 4); for effect on cell killing by 10 μM Abiraterone: 10, 20 and 40 μM SB203580 (FIG. 13B). The protocol:
(§1) Twenty four hours later, the indicated concentration of BI2536 and R1881 were added, representing time zero. Viability of the prostate cancer cells was assessed using Cell-Titer Glo™ according to the manufacturer's instructions.
Viability was measured for the subsequent five days using Cell-Titer Glo™ according to the manufacturer's instructions.
(§2) Cell viability was assessed after 5 days using Cell-Titer Glo™ according to the manufacturer's instructions.
(§3) Cell viability was assessed after 4 days using Cell-Titer Glo™ according to the manufacturer's instructions.

The subject of a further series is LNCaP. As to the kind of experiment: Cell-Titer Glo viability, LNCaP. In kind it is cell-based, human. As to conditions: for effect on cell killing by 10 μM Abiraterone: 10, 20 and 40 μM SB203580 (FIG. 13B). The protocol: as §1, §2, §3
Experiments were conducted to investigate the role of the p38MAPK-MK2 pathway in prostate cancer, Western blotting was used to investigate up-regulation of MK3 and MK5 protein levels in LNCaP cells after MK2 knock down using shRNA.

The next series relates to BT20 cells. As to conditions: 200 mg/kg; cited from earlier work.
For series [11], the system named is Bel-7402, MCF-7, and MIA-PaCa cells. To be noted: 250 mg/kg; cited from earlier work.
The conditions of series [12]: cited from earlier work. This is another data set of the same source.
In series [13] the target is several tyrosine kinases and cyclin-dependent kinase 1 (Cdk1). To be noted: cited from earlier work.
Another series relates to 22 RV1. As to the kind of experiment: Cell-Titer Glo viability, 22 RV1. In kind it is cell-based. To be noted: for effect on cell killing by 10 μM Abiraterone: 10, 20 and 40 μM SB203580 (FIG. 13B). The protocol: Cell viability of PCa cell lines to increasing doses (10, 20 and 40 μM) of the p38MAPK inhibitor SB203580, as measured using Cell Titer Glo (FIG. 13A).
Series [14] concerns several tumor cell lines, including those that express multidrug-resistant protein 1 (MDR1). As to conditions: cited from earlier work.
For series [15], the system named is panel of >50 other kinases. As to conditions: concentrations up to 10 μM, in vitro; cited from earlier work.
In series [16] the test system is multiple human carcinoma xenografts including HCT 116, NCI-H460, and taxane-resistant CXB1 colon carcinoma. To be noted: ~25 mg/kg/day; cited from earlier work.
For series [17] the following is noted: in combination with afatinib; cited from earlier work.
The conditions of series [18]: cited from earlier work. This is another data set of the same source.
The test system of series [19] is HT-29 human colorectal tumors. To be noted: cited from earlier work.
Setting [20] is: increasing concentrations of BI2536, csFBS (FIG. 3A).

Plk1, sequence (P53350 whole entry): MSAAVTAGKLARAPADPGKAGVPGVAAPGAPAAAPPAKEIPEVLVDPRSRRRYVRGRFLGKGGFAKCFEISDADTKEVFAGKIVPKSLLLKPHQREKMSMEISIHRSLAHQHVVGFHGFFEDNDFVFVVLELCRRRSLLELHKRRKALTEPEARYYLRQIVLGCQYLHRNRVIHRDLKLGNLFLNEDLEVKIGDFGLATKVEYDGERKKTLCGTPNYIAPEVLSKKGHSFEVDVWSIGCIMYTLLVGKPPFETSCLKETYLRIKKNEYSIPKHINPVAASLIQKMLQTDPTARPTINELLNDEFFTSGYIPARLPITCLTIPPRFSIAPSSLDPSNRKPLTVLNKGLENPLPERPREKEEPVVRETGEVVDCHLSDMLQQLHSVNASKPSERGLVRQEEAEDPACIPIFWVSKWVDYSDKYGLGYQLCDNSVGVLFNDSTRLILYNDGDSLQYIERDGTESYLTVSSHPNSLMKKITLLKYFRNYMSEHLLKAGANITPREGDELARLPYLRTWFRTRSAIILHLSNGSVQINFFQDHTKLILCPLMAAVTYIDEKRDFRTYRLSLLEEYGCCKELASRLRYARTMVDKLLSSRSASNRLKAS

Regarding `CN1CCN(c2ccc(OC(F)(F)F)c(Nc3ncc4c(n3)-c3c(c(C(N)=O)nn3CCO)CC4)c2)CC1` [NMS 1286937], in series [1], the “potency in proliferation assays” value is “low nanomolar activity”.
With `Cc1ncc(CCCN(C)C)cc1Nc1ncc2c(n1)-c1ccc(C(F)(F)F)cc1NC(=S)C2` [MLN0905], the EC50 was 9 nM with cell mitosis and 29 nM in series [2].
As to `CC(=O)O[C@H]1CC[C@@]2(C)C(=CC[C@@H]3[C@@H]2CC[C@]2(C)C(c4cccnc4)=CC[C@@H]32)C1` [Abiraterone acetate, abiraterone acetate], the solubility in water result in series [3] is listed as “practically insoluble in water”.
Turning to `C[C@@H](Oc1cc(-n2cnc3ccc(CN4CCN(C)CC4)cc32)sc1C(N)=O)c1ccccc1C(F)(F)F` [GSK461364], the “nature of cell culture growth inhibition” value in the series on cell culture was “cytostatic or cytotoxic”. Also, in series [4] (in vivo), the DLTs entry is “grade 4 neutropenia, sepsis, and pulmonary embolism”; the “incidence of venous thrombotic emboli” value was 20%. In addition, the “final recommended phase II dose” value in series [4] (intravenously, schedule A (days 1, 8, and 15 of 28-day cycle)) is on record as 225 mg. Besides, in the series on xenograft tumor models, the “effect in xenograft tumor models” value is on record as “tumor regression”.
Take `COc1ccc(S(=O)(=O)N(C(C)=O)c2ccccc2/C=C/c2cc[n+]([O-])cc2)cc1` [HMN-214]: the DLTs entry in series [5] was “prolonged neutropenia, febrile neutropenia, neutropenic sepsis, electrolyte disturbance, neuropathy, and myalgia”. In addition, in series [6] (9.9 mg/m^2/d), the dose-limiting toxicities result is “severe myalgia/bone pain syndrome and hyperglycemia”. Besides, the “maximum tolerated dose and recommended dose” value in [6] (continuous 21-day dosing schedule every 28 days) is 8.0 mg/m^2/d.
With `COc1ccc(S(=O)(=O)Nc2ccccc2/C=C/c2cc[n+]([O-])cc2)cc1` [HMN-176], in [7], the cytotoxicity result was “potent cytotoxicity”. For the same compound, the antitumor activity result in the series on mouse xenograft models was “potent antitumor activity”. Besides, at Plk1, the “direct inhibition of the enzymatic activity of Plk1” value was “does not directly inhibit the enzymatic activity of Plk1”.
As for `CC[C@@H]1C(=O)N(C)c2cnc(Nc3ccc(C(=O)NC4CCN(C)CC4)cc3OC)nc2N1C1CCCC1` [BI2536], the T/C is 14% in the series with A549, 5% in the series on BxPC-3, 15% in the series on HCT 116 xenografts (50 mg/kg once per week) and 0.3% in the series with HCT 116 xenografts (50 mg/kg twice per week). Further, the PSA expression entry with PSA expression was “did not suppress PSA expression”. Also, the maximum tolerated dose is 350 mg in series [8] (day 1 schedule) and 200 mg in series [8] (days 1+8 schedule). Besides, the MTD in [9] is 50 to 70 mg. Further, the safety profile result in series [10] (200 mg combined with standard-dose pemetrexed) was “acceptable safety profile”. Besides, the “dose-limiting toxicities (DLT)” value in [10] (325 mg with pemetrexed) is “grade 3 pruritus and rash; grade 4 neutropenia”. Besides, in [10] (in combination with 500 mg/m^2 pemetrexed, day 1 every 3 weeks, intravenous), the “maximum tolerated dose (MTD)” value is listed as 300 mg. The “relative levels of proliferation” value in the series on C4-2 was “reduced over time”. Also, the proliferation over time result in the series on C4-2 (5 nM BI2536, csFBS (FIG. 3B)) was “reduced”; in the series with LNCaP (5 nM BI2536, csFBS (FIG. 3B)), “reduced”. For the same compound, the viability entry with C4-2 (setting [20]) and in the series on LNCaP (setting [20]) was “reduced” each time.
Consider `COc1cc(OC)c(/C=C/S(=O)(=O)Cc2ccc(OC)c(NCC(=O)[O-])c2)c(OC)c1.[Na+]` [ON 01910], for which the tumor growth entry with BT20 cells is given as “inhibition of tumor growth”; in series [11], “inhibited tumor growth”. In addition, in series [12] (at the MTD), the DLT result is “Grade 3 abdominal pain”. In addition, the MTD in series [12] (i.v. days 1, 4, 8, 11, 15, and 18 in 28-day cycles) was 3,120 mg. In [13], the IC50 was 18 to 260 nM.
For the compound `C[S+]([O-])c1ccc(-c2nc(-c3ccncc3)c(-c3ccc(F)cc3)[nH]2)cc1` (centres unmarked) [SB203580], the “cell death, p38MAPK inhibition alone” value in the series on 22 RV1 (10, 20 and 40 μM (FIG. 13A)) is recorded as “small amounts of cell death”; with C4-2 (10, 20 and 40 μM (FIG. 13A)), “small amounts of cell death”; in the series with LNCaP (10, 20 and 40 μM (FIG. 13A)) it was “small amounts of cell death”. In addition, the “effect on cell killing by 10 μM Abiraterone” value with 22 RV1 is “additive”; with 22 RV1 (listed as p38MAPK inhibitor), “modestly enhanced”; with C4-2 it was “additive”; in the series on C4-2 (listed as p38MAPK inhibitor) it was “modestly enhanced”; with LNCaP, “additive”; with LNCaP (listed as p38MAPK inhibitor), “modestly enhanced”.
Take `COc1cc(C(=O)NC2CCN(C)CC2)c(F)cc1Nc1ncc2c(n1)N(C1CCCC1)CC(F)(F)C(=O)N2C` [TAK-960]: in series [14], the “activity in tumor cell lines” value is recorded as “has shown activity”.
Consider `CC(=O)O[C@@]12CO[C@@H]1C[C@H](O)[C@@]1(C)C(=O)[C@H](O)C3=C(C)[C@@H](OC(=O)[C@H](O)[C@@H](NC(=O)OC(C)(C)C)c4ccccc4)C[C@@](O)([C@@H](OC(=O)c4ccccc4)[C@H]21)C3(C)C` [Docetaxel, docetaxel], for which the “synergy with Abiraterone (% viability)” value in the series on 22 RV1 (5 nM docetaxel, increasing abiraterone, 4 days, csFBS (FIG. 7B)) is “did not synergize with Abiraterone”; in the series with C4-2 (5 nM docetaxel, increasing abiraterone, 4 days, csFBS (FIG. 7C)), “did not synergize with Abiraterone”; with LNCaP (5 nM docetaxel, increasing abiraterone, 4 days, FBS (FIG. 7A)), “did not synergize with Abiraterone”.
With `CC[C@@H]1C(=O)N(C)c2cnc(Nc3ccc(C(=O)N[C@H]4CC[C@H](N5CCN(CC6CC6)CC5)CC4)cc3OC)nc2N1C(C)C` [BI6727], in series [15], the “inhibitory activity against a panel of >50 other kinases” value is “no inhibitory activity”. For the same compound, the growth of xenografts entry in series [16] is given as “significantly inhibits the growth”. Moreover, the values for the MTD in series [17] and in series [18] (i.v. once every 3 weeks) were 300 mg and 400 mg, respectively. Besides, in series [18] (i.v. once every 3 weeks, 12-450 mg), the DLTs entry was “neutropenia, thrombocytopenia, and febrile neutropenia”. Also, the “recommended dose for further development based on overall tolerability” value in [18] (in vivo) is 300 mg.
On to `C[C@]12CC[C@H](O)CC1=CC[C@@H]1[C@@H]2CC[C@]2(C)C(c3cccnc3)=CC[C@@H]12` [abiraterone], for which the “sensitivity to Abiraterone in the absence of BI2536” value was “relatively resistant” in the series with 22 RV1 (five days, csFBS) and “relatively resistant” in the series on C4-2 (five days, csFBS). The PSA expression result with PSA expression is “substantially decreased”. In addition, the “relative levels of proliferation” value with C4-2 is recorded as “reduced over time”.
On to `C[C@]1(O)CC[C@H]2[C@@H]3CCC4=CC(=O)CCC4=C3C=C[C@@]21C` [R1881], for which the “proliferation over time in the presence of BI2536 and synthetic androgen” value with C4-2 (5 nM BI2536, csFBS (FIG. 3B)) is reported as “somewhat rescued”; in the series on LNCaP (5 nM BI2536, csFBS (FIG. 3B)), “somewhat rescued”. In addition, the “viability in the presence of BI2536 and synthetic androgen” value in the series on C4-2 (csFBS (FIG. 3A)) and in the series with LNCaP (csFBS (FIG. 3A)) was “somewhat rescued” throughout.
For `COc1cc(C(=O)NC2CCN(C)CC2)ccc1Nc1ncc2c(n1)N(C1CCCC1)CC(F)(F)C(=O)N2C` [RO3280], in series [19] (dosed more frequently), the antitumor activity result is recorded as “complete tumor regression”. For the same compound, the tumor growth inhibition in [19] (once weekly at 40 mg/kg) is on record as 72%.

As usually defined, the EC50 is the concentration needed to bring the measured effect to its halfway point. What is called T/C is the ratio of treated to control. By IC50 is commonly meant the concentration that inhibits the measured activity by half.
